What was measured:
SW620 cells [1] = assay: MTT cytotoxicity assay, SW620; assay type: cell-based; details: Homo sapiens, SW-620, 48 h, mean ± SD
Experimental: (§1) Human CRC cell lines SW480 (BeNa Culture Collection, Xinyang, China), SW620 (Procell Life Science & Technology Co., Ltd., Wuhan, China), and HT-29 (Zhong Qiao Xin Zhou Biotechnology Co., Ltd., Shanghai, China) were cultured in RPMI 1640 Medium (Livning Biotechnology Co., Ltd., Beijing, China), LoVo cells (Zhong Qiao Xin Zhou Biotechnology Co., Ltd., Shanghai, China) were cultured in DMEM/F12 (Livning Biotechnology Co., Ltd., Beijing, China), and normal human liver cell line QSG-7701 (Beyotime Institute of Biotechnology, Shanghai, China) was cultured in DMEM/high glucose (Livning Biotechnology Co., Ltd., Beijing, China) containing 10% fetal bovine serum (FBS) (Gibco Life Technologies, San Jose, CA, USA). The cells were cultured in a constant temperature incubator at 37 °C, 5% CO2.
(§2) The cytotoxicity of Mor B, Saq B1, Saq B, and Lan N on CRC and the normal human liver cells was detected by MTT (3-(4,5-dimethylthiazol)-2,5-diphenyltetrazolium bromide) assay (Sigma-Aldrich Corp., St. Louis, MO, USA). Cells were evenly distributed in 96-well plates overnight and then treated with Mor B, Saq B1, Saq B, and Lan N at different concentrations for 48 h. The negative control group was treated with the same concentration of DMSO. After treatment, 10 μL of the 5 mg/mL MTT solution was added to each well in the incubator for 4 h. Then, the MTT solution was removed and 150 μL DMSO was added into each hole to dissolve the purple crystal. The absorbance of each well was read at 570 nm with a microplate reader, and the IC50 values were calculated using the software. Each sample was measured three times independently.

LoVo cells = assay: MTT cytotoxicity assay, LoVo; assay type: cell-based; details: Homo sapiens, 48 h, mean ± SD
Experimental: as §1, §2

QSG-7701 cells = assay: MTT cytotoxicity assay, QSG-7701 normal liver cells; assay type: cell-based; details: QSG7701, 48 h, normal human liver cells, mean ± SD
Experimental: as §1, §2

SW480 cells [2] = assay: MTT cytotoxicity assay, SW480; assay type: cell-based; details: Homo sapiens, 48 h, mean ± SD
Experimental: as §1, §2

HT-29 cells = assay: MTT cytotoxicity assay, HT-29; assay type: cell-based; details: Homo sapiens, 48 h, mean ± SD
Experimental: as §1, §2

SW480 cells [3] = assay: Annexin V-FITC/PI flow cytometry of apoptosis, SW480; assay type: cell-based, human
Text: (§3) Annexin V-FITC and Propidium Iodide (PI) apoptosis-detection kits were used to determine the specific proportion of apoptotic cells. Annexin V-FITC is used to detect phosphatidylserine, which moves from the inside of the membrane to the surface of the cell membrane during apoptosis, producing green fluorescence. Late apoptotic cells whose cell membrane integrity is destroyed can be stained with PI, producing red fluorescence.
(§4) An Annexin V-FITC apoptosis detection kit was used to detect cell apoptosis by flow cytometry after staining. The cells were placed in 6-well plates and digested by trypsin (Solarbio, Beijing, China) after Saq B1 treatment. Then, the cells were washed with PBS and centrifuged for 5 min, and the supernatant was discarded. Annexin V-FITC binding buffer was added to gently suspend the cells. Annexin V-FITC and PI were successively added and slowly mixed. Apoptosis was immediately assessed by flow cytometry (Becton, Dickinson and Company, San Jose, CA, USA). Each sample was measured three times.

Bax/Bcl-2 = assay: Western blot of Bax and Bcl-2; assay type: cell-based, human; details: SW480 and SW620 cells
Experimental: (§5) Western blotting was used to reveal changes in the expression of specific proteins after Saq B1 treatment. The cells treated with varying doses of Saq B1 were lysed with RIPA buffer (Beyotime Biotech, Shanghai, China) to obtain total protein, which was quantified using a BCA kit. The proteins with different molecular weights were separated by SDS-PAGE electrophoresis. The protein was transferred to a PVDF membrane and sealed with 5% skim milk for 1 h. After washing with TBS-T buffer, the respective primary antibodies were added to the membrane and incubated at 4 °C overnight. Next, the PVDF membrane was washed with TBS-T buffer three times and incubated with antimouse IgG or antirabbit IgG secondary antibody (CST, Inc., Beverly, MA, USA) for 1 h at room temperature. Proteins on the membranes were visualized using the enhanced chemiluminescence detection kit (ECL®, Amersham Biosciences, Little Chalfont, UK).

PI3K/AKT pathway = assay: Western blot of PI3K, AKT, p-AKT; assay type: cell-based, human; details: SW480 and SW620 cells, 0.1 μM, 0.2 μM, and 0.3 μM
Experimental: as §5

SW620 cells [4] = assay: Annexin V-FITC/PI flow cytometry of apoptosis, SW620; assay type: cell-based, human
Text: as §3, §4

CRC cells = assay: MTT cytotoxicity assay, CRC cells (range over lines); assay type: cell-based; details: Homo sapiens, range over SW480, SW620, LoVo, HT-29
Experimental: as §1
as §2, with “The negative control group was treated with the same concentration of DMSO. After treatment, 10 μL of the 5 mg/mL MTT solution was added to each well in the incubator for 4 h. Then, the MTT solution was removed and 150 μL DMSO was added into each hole to dissolve the purple crystal.” left out

[5] = tested on: E-cadherin, N-cadherin, and vimentin; assay: Western blot of EMT markers; assay type: cell-based, human; details: SW480 and SW620 cells, 0–0.3 μmol/L
Experimental: as §5

SW480 cells [6] = assay: Transwell migration and invasion assay; assay type: cell-based, human
Experimental: The transwell assay is used to test the ability of cells to invade and metastasize. In the invasion assay, we placed transwell chambers in a 24-well plate, and cells were suspended in 200 μL serum-free medium at the density of 1 × 10^5 cells/mL. Then, cells were added to an upper chamber containing Matrigel, while 700 μL of the medium containing 20% FBS as a chemo-attractant was added to the lower chamber. The cells were treated with various doses of Saq B1 and incubated with 5% CO2 at 37 °C. Thereafter, all media were discarded, and the cells in the lower chamber were fixed in 4% paraformaldehyde for 20 min and placed in 0.5% crystal violet dye for 20 min. After washing the cells with PBS three times, five regions were selected randomly under the microscope, pictures were taken, and the number of transmembrane cells was counted. The migration assay followed the same procedure as the invasion assay but without Matrigel. Each sample was evaluated independently three times.

SW480 cells [7] = assay: Wound-healing assay; assay type: cell-based, human; details: SW480, with increasing dose, 48 h
Experimental: To determine the migratory ability of cells in vitro, we adopted the cell scratch test. Cells were placed in a 6-well plate at a density of 5 × 10^4 cells per well. When the cells had adhered to 90% of each well, we made equal-width scratches at the same position in each hole with sterile micropipette tips. Each well was washed three times with PBS to remove suspended cells. The cells in the well were treated with different concentrations of Saq B1. The wound-healing rate (%) = (1 − (the width of the assay group/the width of the control group)) × 100% was calculated according to the width of the scratches in each group to evaluate the migratory ability of the cells. Each sample was measured three times.

SW480 cells [8] = assay: Colony formation assay; assay type: cell-based, human; details: SW480, with increasing concentration, 14 days
Text: The cell colony formation assay is an important technique for detecting cell proliferation, invasiveness, and drug sensitivity. After digestion of trypsin in the logarithmic growth phase, the cells were inoculated on 6-well plates at a density of 700 cells/well. The medium was refreshed every 3 days and treatment continued for 14 days. Finally, the colonies were fixed with 4% paraformaldehyde and stained with crystal violet. Colonies with >50 cells were counted and photographed.

Row | Structure (SMILES) | IC50 (SW620 cells [1]) [µM] | IC50 (LoVo cells) [µM] | IC50 (QSG-7701 cells) [µM] | IC50 (SW480 cells [2]) [µM] | IC50 (HT-29 cells) [µM] | also measured
1 | COc1cccc2c1C(=O)c1c(O)c3c(c(O)c1C2=O)C[C@@](O)(C(=O)CO)C[C@@H]3O[C@H]1C[C@H](N)[C@H](O)[C@H](C)O1 [Doxorubicin, reference compound] | 1.06 ± 0.11 | 0.83 ± 0.12 | 1.33 ± 0.03 | 0.91 ± 0.08 | 1.02 ± 0.1 | –
2 | Cc1cc(O)c2c3c(cc(O)c2c1)C(=O)c1c(ccc([C@H]2C[C@H]4O[C@H]5CC(=O)[C@H](C)O[C@H]5O[C@@H]4[C@@H](C)O2)c1O)C3=O [Landomycin N] | > 20 | > 20 | > 20 | > 20 | > 20 | –
3 | C[C@@H]1O[C@H]2O[C@@H]3[C@@H](C)O[C@@H](c4ccc5c(c4O)C(=O)c4ccc6c(c4C5=O)C(=O)C[C@](C)(O)C6)C[C@H]3O[C@H]2CC1=O [Moromycin B] | 0.34 ± 0.05 | 0.78 ± 0.02 | 1.26 ± 0.15 | 0.45 ± 0.06 | 0.82 ± 0.04 | –
4 | C[C@@H]1O[C@H]2O[C@@H]3[C@@H](C)O[C@@H](c4ccc5c(c4O)C(=O)C4=C(C5=O)[C@@]5(O)C(=O)C[C@](C)(O)C[C@@]5(O)C=C4)C[C@H]3O[C@H]2CC1=O [Saquayamycin B1] | 0.26 ± 0.03 | 0.63 ± 0.07 | 1.57 ± 0.12 | 0.18 ± 0.01 | 0.84 ± 0.05 | apoptosis rate (SW480 cells [3]; SW480, Saq B1 0.1 μM): 24.31%; apoptosis rate (SW480 cells [3]; SW480, Saq B1 0.2 μM): 30.75%; apoptosis rate (SW480 cells [3]; SW480, Saq B1 0.3 μM): 40.12%; expression of Bax/Bcl-2 (Bax/Bcl-2): increased; protein expression level of AKT (PI3K/AKT pathway): basically unchanged; protein expression level of PI3K (PI3K/AKT pathway): decreased; protein expression level of p-AKT (PI3K/AKT pathway): decreased; apoptosis rate (SW620 cells [4]; SW620, Saq B1 0.1 μM): 8.11%; apoptosis rate (SW620 cells [4]; SW620, Saq B1 0.2 μM): 12.67%; apoptosis rate (SW620 cells [4]; SW620, Saq B1 0.3 μM): 30.69%; IC50 (CRC cells): 0.18 to 0.84 µM; expression of epithelial adhesion protein E-cadherin [5]: increased; expression of mesenchymal protein N-cadherin [5]: decreased; expression of mesenchymal protein vimentin [5]: decreased; cellular migration and invasion (SW480 cells [6]): dose-dependent inhibition; wound-healing rate of cells (SW480 cells [7]): decreased gradually; size and number of cell clones (SW480 cells [8]): declined
5 | C[C@@H]1O[C@@H](O[C@H]2CC[C@H](O[C@@]3(C)CC(=O)[C@]4(O)C5=C(C=C[C@]4(O)C3)C(=O)c3c(ccc([C@H]4C[C@H]6O[C@H]7CC(=O)[C@H](C)O[C@H]7O[C@@H]6[C@@H](C)O4)c3O)C5=O)O[C@H]2C)C=CC1=O [Saquayamycin B] | 0.42 ± 0.02 | 0.75 ± 0.03 | 1.38 ± 0.14 | 0.32 ± 0.03 | 0.89 ± 0.02 | –

— paper PMC9502403, “Saquayamycin B1 Suppresses Proliferation, Invasion, and Migration by Inhibiting PI3K/AKT Signaling Pathway in Human Colorectal Cancer Cells” (Marine Drugs, 2022)
